The target of series [1] is T1, unphosphorylated VEGF-R2Δ50 (FLVK) (Homo sapiens, UniProt P35968, DEL940-989/E990V).
T1 construct: VEGF-R2Δ50 contains residues 806–939 and 990–1171; made in house; host or cells: baculovirus/insect cell system
The series can be described thus: VEGF-R2 coupled spectrophotometric assay, unphosphorylated VEGF-R2Δ50 (FLVK). The format is biochemical. As to conditions: for inhibition at 0.1 µM: percent inhibition at 100 nM, library amides from Example 101 (R101), crude mixtures in DMSO, read-out: FLVK (% @ 100 nM); for inhibition at 0.05 µM: 50 nM compound, read-out: FLVK (% inh @ 50 nM); for inhibition at 0.05 µM / Ki: unphosphorylated VEGF-R2Δ50. In short, it runs like this:
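Baculovirus-expressed human VEGF-R2Δ50 (kinase insert partly deleted, E990V), unphosphorylated form; ADP production coupled via PK/LDH to NADH oxidation, read at 340 nm. 20 mM poly(E4Y1), 3 mM ATP, 60 mM MgCl2, 2 mM MnCl2, 200 mM HEPES pH 7.5; 5–40 nM enzyme. Ki from Morrison tight-binding fit.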

The next series has as its target T2, FGF-R1 (Homo sapiens, UniProt P11362, C488A/C584S/L457V).
T2 construct: starting from the endogenous methionine residue 456 to glutamate 766; made in house; host or cells: baculovirus vector expression system
The series can be described thus: FGF-R spectrophotometric assay. The format is biochemical. As to conditions: percent inhibition at 100 nM; library amides from Example 101 (R101), crude mixtures in DMSO. On the procedure: FGF-R1 Construct for Assay:
The intracellular kinase domain of human FGF-R1 was expressed using the baculovirus vector expression system starting from the endogenous methionine residue 456 to glutamate 766, according to the residue numbering system of Mohammadi et al., Mol. Cell. Bio., 16, 977–989 (1996). In addition, the construct also has the following 3 amino acid substitutions: L457V, C488A, and C584S.
The spectrophotometric assay was carried out as described above for VEGF-R2, except for the following changes in concentration: FGF-R=50 nM, ATP=2 mM, and poly(E4Y1)=15 mM.

Another series has as its target T3, PDGFRβ (Homo sapiens, UniProt P09619).
T3 construct: expressed in transfected cells; host or cells: porcine aorta endothelial (PAE)-PDGFRβ cells
Put plainly: PAE-PDGFRβ phosphorylation in PAE-PDGFRB cells assay. The series is classed as cell-based. In short, it runs like this:
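PAE cells overexpressing human PDGFRβ, serum-starved 16 h (0.1% FBS), were given compound for 1 h at 37 °C (0.5% DMSO) and then stimulated with 1 μg/mL PDGF-BB plus 2 mM Na3VO4 for 8 min. Receptor autophosphorylation was read by capture ELISA (HRP-PY20, TMB, 450 nm); IC50 from 4-parameter fit.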

Series [2] relates to human umbilical vein endothelial cells (HUVEC). The series can be described thus: HUVEC+VEGF proliferation assay. The series is classed as cell-based. As to conditions: Homo sapiens, HUVEC; VEGF 6 ng/mL, 72 h, MTT. In a few lines:
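Exponentially growing passage 3–4 HUVEC were starved 24 h in F12K + 1% FBS, given compound (0.1% final DMSO) 1 h before 6 ng/mL final VEGF, then cultured 72 h. Proliferation was read as MTT dye reduction (4 h exposure), absorbance at 595 nm.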

Another series relates to Huvec. Put plainly: bFGF Huvec proliferation. As to conditions: Homo sapiens, HUVEC. The format is cell-based, human.
The next series in a line: Mouse PK assay. The format is in vivo. As to conditions: 50 mg/kg, B6 female mice, plasma; for AUC / Cmax: mouse, po. On the procedure:
The pharmacokinetics (e.g., absorption and elimination) of drugs in mice were analyzed using the following experiment. Test compounds were formulated as a suspension in a 30:70 (PEG 400:acidified H2O) vehicle. This solution was administered orally (p.o.) and intraperitoneally (i.p.) at 50 mg/kg to two distinct groups (n=4) of B6 female mice. Blood samples were collected via an orbital bleed at time points: 0 hour (pre-dose), 0.5 hr, 1.0 hr, 2.0 hr, and 4.0 hr post dose. Plasma was obtained from each sample by centrifugation at 2500 rpm for 5 min. Test compound was extracted from the plasma by an organic protein precipitation method. For each time bleed, 50 μL of plasma was combined with 1.0 mL of acetonitrile, vortexed for 2 min. and then spun at 4000 rpm for 15 min. to precipitate the protein and extract out the test compound. Next, the acetonitrile supernatant (the extract containing test compound) was poured into new test tubes and evaporated on a hot plate (25° C.) under a steam of N2 gas. To each tube containing the dried test compound extract, 125 μL of mobile phase (60:40, 0.025 M NH4H2PO4+2.5 mL/L TEA:acetonitrile) was added. The test compound was resuspended in the mobile phase by vortexing and more protein was removed by centrifugation at 4000 rpm for 5 min. Each sample was poured into an HPLC vial for test compound analysis on an Hewlett Packard 1100 series HPLC with UV detection. From each sample, 95 μL was injected onto a Phenomenex-Prodigy reverse phase C-18, 150×3.2 mm column and eluted with a 45–50% acetonitrile gradient run over 10 min. Test-compound plasma concentrations (μg/mL) were determined by a comparison to standard curve (peak area vs. conc. μg/mL) using known concentrations of test compound extracted from plasma samples in the manner described above. Along with the standards and unknowns, three groups (n=4) of quality controls (0.25 μg/mL, 1.5 μg/mL, and 7.5 μg/mL) were run to insure the consistency of the analysis. […] The quantitated test samples were plotted for visual display using Kalidagraph software and their pharmacokinetic parameters were determined using WIN NONLIN software.

Where [3] appears, read: library amides from Example 101 (R101), crude mixtures in DMSO, read-out: PAE PDGFR autophos IC50.
Where [4] appears, read: PAE cells overexpressing human PDGFRβ, PDGF-BB stimulated, read-out: PAE PDGFR autophos IC50 (nM) AVG.

The values below come from patent publication US7045528B2, “Benzofused heterozryl amide derivatives of thienopyridines useful as therapeutic agents, pharmaceutical compositions including the same, and methods for their use” (Agouron Pharmaceuticals, Inc., priority 2002, dated 2006).

Where two headings read alike, the source gives them in different places.

T3 sequence (P09619 33-1106): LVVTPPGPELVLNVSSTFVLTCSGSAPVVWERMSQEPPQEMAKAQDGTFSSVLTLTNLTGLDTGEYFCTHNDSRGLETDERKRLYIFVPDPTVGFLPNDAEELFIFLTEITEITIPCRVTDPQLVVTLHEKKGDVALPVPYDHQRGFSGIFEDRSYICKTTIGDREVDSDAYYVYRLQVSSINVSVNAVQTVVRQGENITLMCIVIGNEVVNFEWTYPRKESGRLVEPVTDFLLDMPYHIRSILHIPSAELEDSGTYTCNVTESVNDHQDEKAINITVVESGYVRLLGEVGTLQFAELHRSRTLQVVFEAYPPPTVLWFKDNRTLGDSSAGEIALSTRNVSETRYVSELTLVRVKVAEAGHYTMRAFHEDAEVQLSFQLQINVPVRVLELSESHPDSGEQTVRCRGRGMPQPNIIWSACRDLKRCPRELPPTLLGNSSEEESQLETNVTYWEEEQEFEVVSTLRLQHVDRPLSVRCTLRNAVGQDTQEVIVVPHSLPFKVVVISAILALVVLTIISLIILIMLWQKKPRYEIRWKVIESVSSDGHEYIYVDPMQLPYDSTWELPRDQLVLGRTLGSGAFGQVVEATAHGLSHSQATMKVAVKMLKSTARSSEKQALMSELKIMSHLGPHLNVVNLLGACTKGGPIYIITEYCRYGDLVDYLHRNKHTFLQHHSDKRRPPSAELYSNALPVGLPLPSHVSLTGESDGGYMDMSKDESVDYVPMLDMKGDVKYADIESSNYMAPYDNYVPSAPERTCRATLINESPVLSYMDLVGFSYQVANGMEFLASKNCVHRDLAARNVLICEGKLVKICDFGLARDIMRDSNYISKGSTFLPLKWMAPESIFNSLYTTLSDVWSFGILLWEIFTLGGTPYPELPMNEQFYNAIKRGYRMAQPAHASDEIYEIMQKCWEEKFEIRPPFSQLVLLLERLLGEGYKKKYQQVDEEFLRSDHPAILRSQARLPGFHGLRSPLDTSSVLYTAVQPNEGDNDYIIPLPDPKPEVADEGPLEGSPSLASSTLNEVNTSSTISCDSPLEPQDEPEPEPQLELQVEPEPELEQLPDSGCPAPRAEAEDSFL
T2 sequence (P11362 456-766 L457V/C488A/C584S): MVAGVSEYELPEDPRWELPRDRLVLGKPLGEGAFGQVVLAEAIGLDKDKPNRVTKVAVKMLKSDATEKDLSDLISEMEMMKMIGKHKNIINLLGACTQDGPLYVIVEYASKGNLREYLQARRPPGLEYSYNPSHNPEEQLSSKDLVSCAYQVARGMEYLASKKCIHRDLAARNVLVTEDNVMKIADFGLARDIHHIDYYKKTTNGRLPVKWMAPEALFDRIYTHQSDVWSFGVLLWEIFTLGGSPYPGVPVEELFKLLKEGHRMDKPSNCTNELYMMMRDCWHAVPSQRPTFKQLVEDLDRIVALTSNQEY
T1 sequence (P35968 with tags, fused parts or gaps DEL940-989/E990V limits assumed): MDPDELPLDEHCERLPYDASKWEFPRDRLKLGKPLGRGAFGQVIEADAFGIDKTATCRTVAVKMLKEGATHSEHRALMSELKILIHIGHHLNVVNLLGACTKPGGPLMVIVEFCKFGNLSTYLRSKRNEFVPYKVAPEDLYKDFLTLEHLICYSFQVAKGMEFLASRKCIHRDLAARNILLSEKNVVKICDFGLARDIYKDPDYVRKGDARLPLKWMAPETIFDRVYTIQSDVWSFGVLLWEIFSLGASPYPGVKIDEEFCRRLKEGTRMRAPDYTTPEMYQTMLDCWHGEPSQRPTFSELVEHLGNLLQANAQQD

By IC50 is commonly meant the concentration needed to halve the response being measured. As to `Cc1oc2cc(Oc3ccnc4ccsc34)ccc2c1C(=O)NCCCN1CCOCC1` [drawing 308], the values for the inhibition at 0.1 µM (in series [1]; at FGF-R1) were 103% and 2%, respectively. Besides, the IC50 on PDGFRβ (setting [3]) was 53 nM.

In the case of `Cc1csc(NC(=O)c2c(C)oc3cc(Oc4ccnc5ccsc45)ccc23)n1`, the results for the inhibition at 0.1 µM (in series [1]; at FGF-R1) were 62% and 7%, respectively. Also, the IC50 at PDGFRβ (setting [3]) is over 100 nM.

For `Cc1oc2cc(Oc3ccnc4ccsc34)ccc2c1C(=O)NCC(c1ccc[nH]1)C(F)(F)F` (stereo not shown), the figures for the inhibition at 0.1 µM (in series [1]; on FGF-R1) were 85% and 3%, respectively. Moreover, the half-inhibitory concentration (IC50) at PDGFRβ (setting [3]) is over 100 nM.

`Cc1oc2cc(Oc3ccnc4ccsc34)ccc2c1C(=O)Nc1cc(C2CC2)nn1C`: the inhibition at 0.1 µM in series [1] turned out to be 56%; on FGF-R1, 3%. Moreover, on PDGFRβ (setting [3]), the IC50 was over 100 nM.

What is called Ki is the dissociation constant of the complex between target and ligand, obtained from inhibition or displacement. Higher therefore signals lower affinity. The term AUC denotes the area under the concentration-time curve, a measure of exposure. A lower AUC goes with low exposure. What is called Cmax is the peak of the concentration-time curve. Turning to `CNC(=O)c1c(C)sc2cc(Oc3ccnc4cc(C(=O)N5C[C@H](OC)[C@H](OC)C5)sc34)ccc12` [Example 5, 6-(2-[meso-3,4-dimethoxypyrrolidine-1-carbonyl]thieno[3,2-b]pyridin-7-yloxy)-2-methylbenzo[b]thiophene-3-carboxylic acid methylamide], the IC50 in series [2] was 1.55 nM. In series [1], the inhibition at 0.05 µM was determined as 73% and the Ki amounted to 1.91 nM. Moreover, inhibition with Huvec was half-maximal at 235 nM (IC50). In the series “Mouse PK assay”, the “mouse Cmin, po” value was determined as 256 ng/mL; the AUC amounted to 12300 ng·h/mL; the peak level (Cmax) was 6740 ng/mL.

On to `Cc1oc2cc(Oc3ccnc4ccsc34)ccc2c1C(=O)Nc1ccc2[nH]ncc2c1`, for which the inhibition at 0.1 µM in series [1] is 96%; at FGF-R1, 0%. In addition, the half-maximal inhibitory concentration (IC50) on PDGFRβ (setting [3]) is about 100 nM.

`Cc1oc2cc(Oc3ccnc4ccsc34)ccc2c1C(=O)Nc1nccs1`: the inhibition at 0.1 µM in series [1] was 90%; at FGF-R1, 20%. Further, on PDGFRβ (setting [3]), the IC50 was over 100 nM.

Consider `Cc1sc2cc(Oc3ccnc4cc(C(=O)N5CCC[C@H]5CO)sc34)ccc2c1C(=O)NC1CC1` [Example 8, 6-(2-[(S)-2-(hydroxymethyl)pyrrolidine-1-carbonyl]thieno[3,2-b]pyridin-7-yloxy)-2-methylbenzo[b]thiophene-3-carboxylic acid cyclopropylamide], for which the half-inhibitory concentration (IC50) in series [2] was found to be 1.37 nM. Further, in series [1], the inhibition at 0.05 µM worked out at 94% and the Ki amounted to 0.403 nM. This compound displayed a half-maximal inhibitory concentration (IC50) with Huvec of 504 nM. Besides, in the series “Mouse PK assay”, the “mouse Cmin, po” value worked out at 105 ng/mL; the AUC was 2350 ng·h/mL; the Cmax worked out at 666 ng/mL.

In the case of `Cc1cc(NC(=O)c2c(C)oc3cc(Oc4ccnc5ccsc45)ccc23)n[nH]1` [drawing 331], the values for the inhibition at 0.1 µM (in series [1]; on FGF-R1) were 100% and 4%, respectively. Further, on PDGFRβ (setting [3]), the half-inhibitory concentration (IC50) was found to be 46 nM.

For the compound `Cc1oc2cc(Oc3ccnc4ccsc34)ccc2c1C(=O)Nc1cc(C(C)(C)C)[nH]n1`, the inhibition at 0.1 µM worked out at 100% in series [1] and 56% at FGF-R1. Further, the 50% inhibitory concentration (IC50) at PDGFRβ (setting [3]) is over 100 nM.

For the compound `CNC(=O)c1c(C)n(C)c2cc(Oc3ccnc4cc(C(=O)N5CCC(CNC(=O)OC(C)(C)C)C5)sc34)ccc12` (stereo not shown) [Example 44, tert-Butyl (1-{[7-({1,2-dimethyl-3-[(methylamino)carbonyl]-1H-indol-6-yl}oxy)thieno[3,2-b]pyridin-2-yl]carbonyl}pyrrolidin-3-yl)methylcarbamate], the IC50 turned out to be 1.78 nM in series [2], 21.3 nM on PDGFRβ (setting [4]) and 6040 nM with Huvec. The inhibition at 0.05 µM in series [1] turned out to be 87%. In addition, affinity in series [1] was put at a Ki of 1.2 nM.

As to `CNC(=O)c1c(C)oc2cc(Oc3ccnc4cc(C(=O)N5CCC[C@H]5COC)sc34)ccc12` [Example 79, 6-(2-[(S)-2-(methoxymethyl)pyrrolidine-1-carbonyl]thieno[3,2-b]pyridin-7-yloxy)-2-methyl-benzofuran-3-carboxylic acid methyl amide], the half-maximal inhibitory concentration (IC50) is 0.223 nM in series [2], 15.5 nM on PDGFRβ (setting [4]) and 130 nM with Huvec. The inhibition at 0.05 µM in series [1] is 90%. This compound came in with an inhibition constant (Ki) in series [1] of 0.276 nM.

With `CCc1oc2cc(Oc3ccnc4cc(C(=O)N5CC[C@@H](O)C5)sc34)ccc2c1C(=O)NC` [Example 95, 2-Ethyl-6-[2-(3-hydroxy-pyrrolidine-1-carbonyl)-thieno[3,2-b]pyridin-7-yloxy]-benzofuran-3-carboxylic acid methylamide], the results for the IC50 (in series [2]; on PDGFRβ (setting [4]); in the series on Huvec) were 10 nM, 235 nM and 96 nM, respectively. Further, the inhibition at 0.05 µM in series [1] turned out to be 89%. In series [1], this compound showed a Ki of 0.848 nM.

`COC[C@@H]1CCCN1C(=O)c1cc2nccc(Oc3ccc4c(C(=O)NCC(C)C)c(C)oc4c3)c2s1` (stereo in doubt) [Example 85, 6[2-(2-Methoxymethyl-pyrrolidine-1-carbonyl)-thieno[3,2-b]pyridin-7-yloxy]-2-methyl-benzofuran-3-carboxylic acid isobutyl amide]: the values for the IC50 (in series [2]; on PDGFRβ (setting [4]); with Huvec) were 3.92 nM, 27.3 nM and 6990 nM, respectively. Also, the inhibition at 0.05 µM in series [1] stood at 83%. The same compound yielded a Ki in series [1] of 1.71 nM.

`CNC(=O)c1c(Cl)n(C)c2cc(Oc3ccnc4cc(-c5nc(C(C)(C)O)cs5)sc34)ccc12` [Example 75, 2-Chloro-6-{2-[4-(1-hydroxy-1-methyl-ethyl)thiazol-2-yl]-thieno[3,2-b]pyridin-7-yloxy}-1-methyl-1H-indole-3-carboxyllc acid methylamide]: the values for the half-maximal inhibitory concentration (IC50) (in series [2]; on PDGFRβ (setting [4]); in the series with Huvec) were 1.4 nM, 16.6 nM and 10000 nM, respectively. The inhibition at 0.05 µM in series [1] came out at 84%. The compound also showed an inhibitory constant (Ki) in series [1] of 2.62 nM.

Consider `CO[C@@H]1CCN(C(=O)c2cc3nccc(Oc4ccc5c(C(=O)NCCCO)c(C)sc5c4)c3s2)C1` [Example 124, 6-[(2-{[(3R)-3-Methoxypyrrolidin-1-yl]carbonyl}thieno[3,2-b]pyridin-7-yl)oxy]-2-methylbenzo[b]thiophene-3-carboxylic acid 3-hydroxypropylamide], for which the 50% inhibitory concentration (IC50) in series [2] is 1.6 nM; on PDGFRβ (setting [4]), 376 nM; in the series on Huvec it was 8240 nM. The inhibition at 0.05 µM in series [1] worked out at 82%. Also, the Ki in series [1] came to 2.19 nM.

For `CNC(=O)c1c(C)oc2cc(Oc3ccnc4cc(C(=O)N5CCC5)sc34)ccc12` [Example 77, 6[2-(Azetidine-1-carbonyl)-thieno[3,2-b]pyridin-7-yloxy]-2-methyl-benzofuran-3-carboxylic acid methylamide], the concentration for half-maximal inhibition (IC50) in series [2] was determined as 0.2 nM; at PDGFRβ (setting [4]), 7.4 nM; in the series on Huvec it was 8 nM. The inhibition at 0.05 µM in series [1] was found to be 99%. The compound also registered a Ki in series [1] of 0.2 nM.
